Among the data in the Kinase Knowledgebase extract (Sharma et al. 2016) are Ki values, retold here.

Test [1] has as its target MAPK14 (human) (UniProt Q16539). Kind of test: Enzyme Assay.
The target in test [2] is ROCK2 (human) (UniProt O75116). Kind of test: Enzyme Assay.
In test [3] the target is EGFR (human) (UniProt P00533).
Test [4] has as its target CDK2 (human) (UniProt P24941). The test can be described thus: Enzyme Assay.

A value given as a limit tells only on which side of the number the result lay.

Chain of MAPK14 (human) (Q16539 whole entry, looked up): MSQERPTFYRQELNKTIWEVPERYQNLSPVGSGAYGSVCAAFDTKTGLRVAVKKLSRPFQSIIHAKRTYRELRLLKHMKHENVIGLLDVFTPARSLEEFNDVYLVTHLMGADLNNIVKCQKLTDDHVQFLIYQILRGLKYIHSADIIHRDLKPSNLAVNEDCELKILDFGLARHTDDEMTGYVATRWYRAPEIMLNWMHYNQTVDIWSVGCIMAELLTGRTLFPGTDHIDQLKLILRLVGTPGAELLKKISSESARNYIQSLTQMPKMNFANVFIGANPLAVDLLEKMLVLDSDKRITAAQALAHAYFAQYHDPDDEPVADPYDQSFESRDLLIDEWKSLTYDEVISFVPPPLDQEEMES
Chain of ROCK2 (human) (O75116 whole entry, looked up): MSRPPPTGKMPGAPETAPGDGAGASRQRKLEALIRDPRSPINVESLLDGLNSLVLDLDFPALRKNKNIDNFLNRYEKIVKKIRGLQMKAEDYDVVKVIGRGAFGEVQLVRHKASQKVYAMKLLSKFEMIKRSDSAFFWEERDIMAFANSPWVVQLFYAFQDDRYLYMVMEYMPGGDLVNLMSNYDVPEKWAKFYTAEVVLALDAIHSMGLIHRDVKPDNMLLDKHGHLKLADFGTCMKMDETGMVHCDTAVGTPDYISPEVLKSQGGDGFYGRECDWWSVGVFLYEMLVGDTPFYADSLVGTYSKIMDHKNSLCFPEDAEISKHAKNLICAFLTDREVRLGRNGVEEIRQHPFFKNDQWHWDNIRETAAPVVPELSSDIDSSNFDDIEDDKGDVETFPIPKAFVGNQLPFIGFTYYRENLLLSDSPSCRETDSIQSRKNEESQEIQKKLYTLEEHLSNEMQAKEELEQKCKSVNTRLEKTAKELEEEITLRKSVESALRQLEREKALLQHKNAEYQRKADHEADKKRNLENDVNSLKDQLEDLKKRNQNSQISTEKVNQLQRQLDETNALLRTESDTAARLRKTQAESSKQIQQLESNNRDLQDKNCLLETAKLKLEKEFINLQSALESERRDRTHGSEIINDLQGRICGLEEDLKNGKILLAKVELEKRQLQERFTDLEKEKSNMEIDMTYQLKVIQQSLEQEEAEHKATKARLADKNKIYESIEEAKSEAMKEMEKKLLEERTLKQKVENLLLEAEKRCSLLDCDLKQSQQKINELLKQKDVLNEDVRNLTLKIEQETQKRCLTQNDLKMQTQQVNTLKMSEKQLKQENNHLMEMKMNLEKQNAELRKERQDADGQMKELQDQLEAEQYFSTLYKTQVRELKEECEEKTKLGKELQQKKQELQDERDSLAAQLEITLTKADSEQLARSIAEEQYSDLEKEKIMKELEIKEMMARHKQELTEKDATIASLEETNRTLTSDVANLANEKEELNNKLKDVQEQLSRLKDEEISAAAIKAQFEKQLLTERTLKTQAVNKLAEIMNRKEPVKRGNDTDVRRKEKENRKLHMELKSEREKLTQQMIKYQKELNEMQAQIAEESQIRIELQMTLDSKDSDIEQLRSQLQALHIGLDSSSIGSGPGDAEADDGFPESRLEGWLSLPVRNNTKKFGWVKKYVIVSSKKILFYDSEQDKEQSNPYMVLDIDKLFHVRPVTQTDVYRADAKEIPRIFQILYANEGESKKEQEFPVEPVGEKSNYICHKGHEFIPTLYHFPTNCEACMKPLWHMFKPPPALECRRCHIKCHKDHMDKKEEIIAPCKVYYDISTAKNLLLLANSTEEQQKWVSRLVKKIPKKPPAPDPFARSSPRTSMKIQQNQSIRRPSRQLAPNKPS
Chain of EGFR (human) (P00533 whole entry, looked up): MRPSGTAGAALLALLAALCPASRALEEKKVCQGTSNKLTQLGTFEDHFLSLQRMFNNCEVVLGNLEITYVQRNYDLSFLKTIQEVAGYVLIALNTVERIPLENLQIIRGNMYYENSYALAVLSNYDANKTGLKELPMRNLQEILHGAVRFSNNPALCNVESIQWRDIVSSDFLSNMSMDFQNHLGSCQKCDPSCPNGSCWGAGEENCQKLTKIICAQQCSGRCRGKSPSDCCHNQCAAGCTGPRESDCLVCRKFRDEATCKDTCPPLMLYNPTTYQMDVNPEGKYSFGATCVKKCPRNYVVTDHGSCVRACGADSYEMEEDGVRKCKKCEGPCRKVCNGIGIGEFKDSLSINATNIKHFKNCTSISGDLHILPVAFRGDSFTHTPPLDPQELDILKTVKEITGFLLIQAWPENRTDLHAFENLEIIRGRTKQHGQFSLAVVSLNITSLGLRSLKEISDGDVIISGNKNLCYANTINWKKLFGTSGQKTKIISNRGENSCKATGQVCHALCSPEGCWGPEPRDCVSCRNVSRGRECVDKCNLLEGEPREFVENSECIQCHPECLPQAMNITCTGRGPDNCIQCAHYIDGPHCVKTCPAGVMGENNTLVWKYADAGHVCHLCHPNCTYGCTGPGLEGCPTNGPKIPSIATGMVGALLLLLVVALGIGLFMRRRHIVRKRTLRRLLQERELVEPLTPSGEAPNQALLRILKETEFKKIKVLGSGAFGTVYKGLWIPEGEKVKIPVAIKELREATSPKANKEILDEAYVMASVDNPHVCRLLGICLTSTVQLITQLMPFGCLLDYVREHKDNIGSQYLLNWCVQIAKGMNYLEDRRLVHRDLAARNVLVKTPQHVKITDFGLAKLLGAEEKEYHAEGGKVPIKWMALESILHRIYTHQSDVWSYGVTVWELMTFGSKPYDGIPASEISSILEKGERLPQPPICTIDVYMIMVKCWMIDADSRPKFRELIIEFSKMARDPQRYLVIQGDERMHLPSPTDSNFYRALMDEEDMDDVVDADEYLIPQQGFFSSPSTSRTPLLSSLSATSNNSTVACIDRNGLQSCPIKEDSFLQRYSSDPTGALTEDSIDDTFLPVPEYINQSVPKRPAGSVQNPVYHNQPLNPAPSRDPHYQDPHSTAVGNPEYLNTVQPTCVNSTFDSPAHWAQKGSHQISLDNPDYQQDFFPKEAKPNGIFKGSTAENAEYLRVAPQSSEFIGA

In general, Ki refers to the equilibrium dissociation constant of an inhibitor or competing ligand from its target. Read a low Ki as higher affinity. Turning to `Nc1ccc2cc(NCCc3ccccc3)cc(Nc3ncccn3)c2n1`, the Ki in test [1] worked out at 2510 nM.
Same read-out and setting: the value for `COc1ccc(C2=NNc3cccc4c(OC)ccc2c34)cc1OC` was 501 nM.
Still for that read-out and setting: the value for `Fc1cccc(CNc2ncnc3[nH]cnc23)c1` was 15800 nM; that for `CC(C)CC(NC(=O)c1cccc(-n2nc(C(C)(C)C)cc2NC(=O)Nc2cccc3ccccc23)c1)C(N)=O` (stereo unspecified) was 794 nM.
As to `O=C(Nc1cc(-c2c[nH]c3ncccc23)cc(Cl)n1)c1ccccc1`, the Ki is over 1000 nM in test [2] and 3160 nM in test [1].
Consider `NC(=O)c1ccc2nc(-c3ccc([N+](=O)[O-])o3)cn2c1`, for which, in test [1], the Ki turned out to be 3160 nM.
As to `COc1cc2ncn(-c3cc(OCc4ccccc4C(F)(F)F)c(C(N)=O)s3)c2cc1OC`, the Ki was over 7940 nM in test [2] and 251 nM in test [3].
In the case of `COc1c(-c2nc3ccccc3[nH]2)c(O)cc2oc(C)cc(=O)c12`, the Ki in test [1] came out at 3980 nM.
Same read-out and setting: the value for `Cc1cc(=O)[nH]nc1-c1ccc(NC(=O)Nc2cc(C(F)(F)F)ccc2F)c(Cl)c1` was 100 nM; that for `O=C(Cc1cccs1)Nc1nc2ccccc2s1` was 3980 nM; that for `CC(C)(C)c1cc(NC(=O)Nc2cccc3ccccc23)n(-c2cccc(C(=O)N(CCN)CCO)c2)n1` was 631 nM.
Same read-out and setting: the value for `CC(=O)n1ncc2cc(N)ccc21` was 7940 nM; that for `CCC(=O)Nc1ccc(C(=O)N2CCNCC2)c(O)c1` was 1000 nM.
In turn, `CC(C)(C)c1cc(NC(=O)c2cc3ccccc3s2)n(-c2ccc(OCC(=O)O)cc2)n1` showed an inhibition constant (Ki) in test [1] of 2510 nM.
With `Cc1cc(=O)[nH]c2[nH]nc(-c3cccc(C(F)(F)F)c3)c12`, the Ki in test [1] amounted to 398 nM.
The same measure, in the same setting: the value for `CC(C)(C)c1cc(NC(=O)C(=O)c2cccc3ccccc23)n(-c2ccc(OCCC(N)=O)cc2)n1` was 631 nM.
In the case of `CNCCOc1cncc(-c2ccc3[nH]nc(C)c3c2)c1`, the Ki is 20 nM in test [2] and 501 nM in test [4].
In the same order, the values of `CC(C)(CO)CCCNc1cc(-c2c[nH]c3ncccc23)cc(Cl)n1` are 10 nM and 100 nM.
For `CC(C)(C)c1cc(NC(=O)C(=O)c2cccc3ccccc23)n(-c2ccc(OCC(=O)NCCO)cc2)n1`, the inhibition constant Ki in test [1] worked out at 631 nM.
In the case of `N#Cc1ccc2[nH]c(O)c(-c3ccc(CN4CCOCC4)cn3)c2c1`, the Ki in test [2] is over 6310 nM; in test [4], 1000 nM.
Consider `CCN(CCN(C)C)C(=O)c1cccc(-n2nc(C(C)(C)C)cc2NC(=O)Nc2cccc3ccccc23)c1`, for which the inhibition constant Ki in test [1] is 794 nM.
For the compound `NC(=O)c1ccc(-c2ccnc(N)n2)cc1N1CCCCC1`, the Ki in test [2] came to 1580 nM; in test [4] it was 1260 nM.
For `Nc1n[nH]c2ccc(-c3cc(Cc4ccccc4)no3)cc12` the same measures were 25.1 nM and 200 nM.
For `Cc1ccc2nccc(NC(=O)Nc3cccc(C(F)(F)F)n3)c2c1` the same measures were over 6310 nM and 79.4 nM.
For the compound `O=C1Nc2ccccc2Nc2cc(-c3ccncc3)ccc21`, the values for the Ki in test [2] and in test [4] were 316 nM and 1000 nM, respectively.
`Cc1ccc(-c2cc(-c3cc(Br)ccc3O)[nH]c(=O)c2C#N)s1` gave a Ki in test [1] of 2510 nM.
As for `CC(C)(O)CNc1cc(-c2c[nH]c3ncccc23)cc(Cl)n1`, the Ki is 15.8 nM in test [2] and 251 nM in test [4].
Consider `CC(C)(C)c1cc(NC(=O)c2cc3ccccc3s2)n(-c2cccc(OCC(=O)O)c2)n1`, for which the Ki in test [1] was determined as 794 nM.
Still for that read-out and setting: the value for `c1ccc(-c2ncc3ccccn23)cc1` was 50100 nM.
On to `CN(C)c1cc(-c2ccncc2)cc2[nH]nc(N)c12`, for which the values for the Ki in test [2] and in test [4] were 79.4 nM and 631 nM, respectively.
